# Measurements as given in patent US11339124B2, “3-(benzylamino)-4-(cyclohexylamino)-n-(2-(piperazin-1-yl)ethyl)benzenesulfonamide derivatives and related ferrostatin-1 analogues as cell death inhibitors for treating e.g. stroke” (VIB VZW, priority 2018, dated 2022).
# Where two headings read alike, the source gives them in different places.
# Assays:
# [1] = system: IMR-32 Neuroblastoma cells; test: Erastin-induced ferroptosis in IMR-32 neuroblastoma cells (Sytox Green cell death readout); format: cell-based; settings: IMR-32 cells, 10 μM erastin, compounds 1 nM to 1 μM, triplicate, read-out: IC50, antiferroptotic activity in response to erastin-induced ferroptosis
# Method: In the present invention the potency of a compound inhibiting (or reducing) ferroptosis and/or oxytosis are determined in in vitro or in vivo assays. Typically in vitro assays are used to measure the potency of a candidate compound. Examples of suitable in vitro assays are cellular assays. One non-limiting example of an assay involves the use of the IMR-32 neuroblastoma cell line. The latter is stimulated to enter into ferroptosis upon stimulation with 10 μM erastin, a documented ferroptosis inducer (see for example Dixon et al (2012) Cell 149, 1060-1072 and ferroptosis inhibitors are evaluated for the prevention of erastin induced ferroptosis. Yet another assay is based the glutamate-induced cell death in the hippocampal cell line HT22 and ferroptosis/oxytosis inhibitors are evaluated for the prevention of cell death (see Henke N. et al (2013) Cell Death and Disease 4, e470). Still another assay is based on the sorafinib induced cell death (described to be iron dependent cell death) in hepatocellular carcinoma cells and ferroptosis inhibitors are evaluated for the prevention of cell death (see Louandre C. et al (2013) Int. J. Cancer 133, 1732). The calculated potency of a compound inhibiting ferroptosis and/or oxytosis is typically depicted as an IC50 value. Examples of suitable in vivo assays are typically pre-clinical disease models of for example mice for the diseases benefiting the application of ferroptosis and/or oxytosis inhibitors, as described herein. One non-limiting example of an in vivo assay is based on inducing liver damage in mice by administering the herbicide diquat dibromide monohydrate and ferroptosis inhibitors are evaluated based on reduced levels of liver transaminases in serum (see Ran Q et al (2004) J. Biol. Chem. 279, 53, 55137).
# The IC50 values for the individual compounds of the invention were determined in the neuroblastoma, IMR-32 cell line. In brief, IMR-32 cells were subjected to 10 μM erastin, the latter compound is known to induce ferroptosis. A concentration gradient (ranging from 1 nM to 1 μM) of the compounds was applied to the cells. These experiments were performed in a 96-well format (in triplicate), and cell death was analyzed in a fluorescent plate reader by use of a fluorescent cell death dye (1.5 μM Sytox Green). The IC50 values depicted in Table 1 are the concentration values for the individual compounds which are able to overcome ferroptosis.
# [2] = Kinetic solubility (turbidimetric method); format: physicochemical; settings: 10 mM PBS pH 7.4, 2% DMSO, test range 3.125-200 μM, 2 h at 37° C.
# Method: A turbidimetric method was used. First a series of DMSO compound stock solutions was prepared ([…]). An aliquot of 4 μL stock solution was added to 196 μL PBS buffer (pH 7.4). A series of concentrations were prepared (3.13-200 μM), including a blank on a microtiter plate. (2% DMSO-D6) The microtiter plate was shaken for 10 seconds and incubated for 2 hours at 37° C. When there was no turbidity measured at a given concentration the sample was assumed to be dissolved.
# [3] = Microsomal (metabolic) stability, human liver microsomes; settings: human liver microsomes, 0.5 mg protein/ml, 10 μM compound, 37° C.
# Text: By using the measured microsomal in vitro t1/2, a calculated value for the intrinsic clearance Clint can be determined. This value states the measure in which a drug that is not bound to plasma proteins is irreversibly removed from the body by the liver. This value is expressed in mL/min/kg which can be interpreted as the volume of blood in mL that is cleared of a drug per minute per kilogram of body weight. The CLint is less sensitive to used variables in ADME assays since the amount of microsomal protein and the volume of the incubation are all taken into account. (Sohlenius-Sternbeck et al., Xenobiotica, 2012, 42, 841-853)
# Liver microsomes (20 mg protein/ml), NADPH regenerating system solutions A & B and 5 mM stock compound solution (100% DMSO) are prepared. The reaction mixture finally contains 713 μL purified water, 200 μL 0.5 M potassium phosphate pH 7.4, 50 μL NADPH regenerating system solution A (BD Biosciences Cat. No. 451220), 10 μL NADPH regenerating system solution B (BD Biosciences Cat. No. 451200) and 2 μL of the compound stock solution (10 μM final concentration). The reaction mixture is warmed to 37° C. for 5 minutes in a water bath and the reaction is initiated by addition of 25 μL of liver microsomes (0.5 mg protein/ml final concentration). At different time points (0 min-15 min-30 min-60 min-120 min-240 min-360 min-24 h), 20 μL is withdrawn and 80 μL cold acetonitrile is added on ice for 10 minutes. Then the mixtures are centrifuged at 13 000 rpm for 5 min at 4° C. The supernatant is further diluted in 90% water/MeCN (1/25) to fall within the range of the LC/MS/MS analysis. At each time point, the compound is analysed using LC/MS/MS with the same UPLC system as described above. A standard curve of six points was made to fit the measured concentrations. Verapamil was used as a positive control.
# All obtained readouts were processed using Microsoft Excel. In order to determine the microsomal half-life t1/2 of the compounds, the rate constant k was determined by plotting the exponential decay graphs using GraFit. Microsomal t1/2 was determined using the following formula: […]
# [4] = system: acute iron poisoning induced organ damage; test: Acute iron poisoning (FeSO4) induced organ damage, plasma LDH and creatine kinase; format: in vivo
# Method: Equimolar amounts of ferroptosis inhibitors (˜10 mg/kg) were injected iv 15 min before ip injection of FeSO4 (300 mg/kg). Plasma was collected 2 h after FeSO4-challenge and analyzed for the presence of lactate dehydrogenase (LDH) and creatine kinase. Fer-1 is ferrostatin, 3234 is compound 37,3206 is compound 38 and 3203 is compound 39 (see Table 1 for numbering and structure). […] Equimolar amounts of ferroptosis inhibitors (˜10 mg/kg) were injected iv 30 min after ip injection of FeSO4 (300 mg/kg). Plasma was collected 8 h after FeSO4-challenge and analyzed for the presence of lactate dehydrogenase (LDH) and creatine kinase.
# We identified acute iron poisoning as a novel experimental model for in rhabdomyolysis-induced kidney failure.
Solubility (kinetic) [2],Compound,IC50 [1],"Microsomal stability (t1/2), Human [3]","Protection against organ damage: plasma lactate dehydrogenase (LDH) and creatine kinase levels, prophylactic setting ([4]; ~10 mg/kg iv 15 min before FeSO4 300 mg/kg ip, plasma 2 h after challenge (FIG. 5A))","Protection against organ damage: plasma lactate dehydrogenase (LDH) and creatine kinase levels, therapeutic setting ([4]; ~10 mg/kg iv 30 min after FeSO4 300 mg/kg ip, plasma 8 h after challenge (FIG. 5B))",IC50 ([1]; Homo sapiens)
>200 µM,"CN(C)CCNS(=O)(=O)c1ccc(NC2CCCCC2)c(N)c1 [Compound 20, 3-amino-4-(cyclohexylamino)-N-(2-(dimethylamino)ethyl)benzenesulfonamide]",,,,,160 nM
>200 µM,"CN1CCN(CCNS(=O)(=O)c2ccc(NC3CCCCC3)c(N)c2)CC1 [Compound 24, 3-amino-4-(cyclohexylamino)-N-(2-(4-methylpiperazin-1-yl)ethyl)benzenesulfonamide]",,,,,236 nM
>200 µM,"Nc1cc(S(=O)(=O)NCCN2CCOCC2)ccc1NC1CCCCC1 [Compound 25, 3-amino-4-(cyclohexylamino)-N-(2-morpholinoethyl)benzenesulfonamide]",,,,,448 nM
>200 µM,"COCCNS(=O)(=O)c1ccc(NC2CCCCC2)c(N)c1 [Compound 26, 3-amino-4-(cyclohexylamino)-N-(2-methoxyethyl)benzenesulfonamide]",,,,,492 nM
>200 µM,"CNCCNS(=O)(=O)c1ccc(NC2CCCCC2)c(N)c1.Cl [Compound 27, 3-amino-4-(cyclohexylamino)-N-(2-(methylamino)ethyl)benzenesulfonamide Hydrochloride]",,,,,214 nM
>200 µM,"Cl.NCCNS(=O)(=O)c1ccc(NC2CCCCC2)c(N)c1 [Compound 28, 3-amino-N-(2-aminoethyl)-4-(cyclohexylamino)benzenesulfonamide Hydrochloride]",,,,,306 nM
>200 µM,"Nc1cc(S(=O)(=O)NCCN2CCNCC2)ccc1NC1CCCCC1 [Compound 29, 3-amino-4-(cyclohexylamino)-N-(2-(piperazin-1-yl)ethyl)benzenesulfonamide]",,,,,296 nM
>200 µM,"CN(C)CCNS(=O)(=O)c1ccc(NC2CCCCC2)c(NCc2ccccc2)c1 [Compound 30, 3-(benzylamino)-4-(cyclohexylamino)-N-(2-(dimethylamino)ethyl)benzenesulfonamide]",,,,,554 nM
>200 µM,"CN1CCN(CCNS(=O)(=O)c2ccc(NC3CCCCC3)c(NCc3ccccc3)c2)CC1 [Compound 34, 3-(benzylamino)-4-(cyclohexylamino)-N-(2-(4-methylpiperazin-1-yl)ethyl)benzenesulfonamide]",,,,,1070 nM
25 to 50 µM,"COCCNS(=O)(=O)c1ccc(NC2CCCCC2)c(NCc2ccccc2)c1 [Compound 36, 3-(benzylamino)-4-(cyclohexylamino)-N-(2-methoxyethyl)benzenesulfonamide]",,,,,22 nM
>200 µM,"CN(C)CCNS(=O)(=O)c1ccc(NC2CCCCC2)c(NCc2ccncc2)c1 [Compound 40, 4-(cyclohexylamino)-N-(2-(dimethylamino)ethyl)-3-((pyridin-4-ylmethyl)amino)benzenesulfonamide]",,,,,1560 nM
>200 µM,"CN1CCN(CCNS(=O)(=O)c2ccc(NC3CCCCC3)c(NCc3ccncc3)c2)CC1 [Compound 44, 4-(cyclohexylamino)-N-(2-(4-methylpiperazin-1-yl)ethyl)-3-((pyridin-4-ylmethyl)amino)benzenesulfonamide]",,,,,1520 nM
>200 µM,"O=S(=O)(NCCN1CCOCC1)c1ccc(NC2CCCCC2)c(NCc2ccncc2)c1 [Compound 45, 4-(cyclohexylamino)-N-(2-morpholinoethyl)-3-((pyridin-4-ylmethyl)amino)benzenesulfonamide]",,,,,191 nM
>200 µM,"COCCNS(=O)(=O)c1ccc(NC2CCCCC2)c(NCc2ccncc2)c1 [Compound 46, 4-(cyclohexylamino)-N-(2-methoxyethyl)-3-((pyridin-4-ylmethyl)amino)benzenesulfonamide]",,,,,97 nM
>200 µM,"CNCCNS(=O)(=O)c1ccc(NC2CCCCC2)c(NCc2ccncc2)c1.Cl [Compound 47, 4-(cyclohexylamino)-N-(2-(methylamino)ethyl)-3-((pyridin-4-ylmethyl)amino)benzenesulfonamide Hydrochloride]",,,,,157 nM
100 to 200 µM,"Cl.NCCNS(=O)(=O)c1ccc(NC2CCCCC2)c(NCc2ccncc2)c1 [Compound 48, N-(2-aminoethyl)-4-(cyclohexylamino)-3-((pyridin-4-ylmethyl)amino)benzenesulfonamide Hydrochloride]",,,,,112 nM
>200 µM,"Cl.O=S(=O)(NCCN1CCNCC1)c1ccc(NC2CCCCC2)c(NCc2ccncc2)c1 [Compound 49, 4-(cyclohexylamino)-N-(2-(piperazin-1-yl)ethyl)-3-((pyridin-4-ylmethyl)amino)benzenesulfonamide Hydrochloride]",,,,,442 nM

Compound,Solubility (kinetic) [2],IC50 [1],"Microsomal stability (t1/2), Human [3]","Protection against organ damage: plasma lactate dehydrogenase (LDH) and creatine kinase levels, prophylactic setting ([4]; ~10 mg/kg iv 15 min before FeSO4 300 mg/kg ip, plasma 2 h after challenge (FIG. 5A))","Protection against organ damage: plasma lactate dehydrogenase (LDH) and creatine kinase levels, therapeutic setting ([4]; ~10 mg/kg iv 30 min after FeSO4 300 mg/kg ip, plasma 8 h after challenge (FIG. 5B))",IC50 ([1]; Homo sapiens)
"CCOC(=O)c1ccc(NC2CCCCC2)c(N)c1 [Compound 1, ferrostatin-1]",>200 µM,33 nM,6.54 ± 0.18 min,does not show any significant protection,only shows minor protection,
